Tests used:
Trk receptor [1] = assay: In vivo first polar body extrusion by ovulated oocytes; design: species or system mouse; conditions: PMSG-primed mice, hCG with i.p. compound, 12 h after hCG
Experimental: (§1) In Vivo Analysis. […] For negative controls, the plasma membrane nonsoluble K252b was used. Twelve hours after hCG injection, ovulated COCs were obtained from the oviducts. After treatment with hyaluronidase (Specialty Media) for 1-2 min, oocytes were separated from cumulus cells and the proportion of oocytes showing first polar body extrusion was evaluated. To evaluate the role of BDNF in the conditioning of oocytes for early embryo development, immature mice were treated with PMSG, followed by hCG as described above. […] Fertilized oocytes were separated from cumulus cells, washed three times in M2 medium, and cultured for 5 days in modified M16 medium. Embryonic development was monitored daily, and the progression of fertilized eggs into preimplantation embryos was assessed.

[2] = test system: oocytes (cumulus oocyte complexes); assay: First polar body extrusion by oocytes in cultured COCs; type: cell-based, mouse; conditions: for effect on the stimulatory effect of BDNF on first polar body extrusion: COCs, cotreatment with BDNF; for first polar body extrusion in cultured oocytes: COCs cultured 20 h without FBS, NGF and NT-3 at 10 ng/ml
Experimental: Evaluation of First Polar Body Extrusion. For evaluating the transition from metaphase I stage to metaphase II (MII) stage oocytes, COCs were obtained from mouse ovaries 48 h after PMSG treatment by puncturing the largest follicles in M2 medium (Specialty Media, Phillipsburg, N.J.). COCs were washed twice, transferred to modified M16 medium (Specialty Media) without FBS, and cultured with or without different doses of BDNF, mouse nerve growth factor (NGF; R & D Systems), or human neurotrophin-3 (NT-3) (R & D Systems) for 20 h at 37° C. in 5% CO2/95% air. Some COCs were also cultured with BDNF with or without the TrkB ectodomain (R & D Systems), pan-specific Trk receptor inhibitor K252a (Calbiochem), or K252b. The occurrence of first polar body extrusion in the oocyte was examined after removing cumulus cells by using a small-bore pipette under Hoffman contrast microscopy (Nikon).

Trk receptor [3] = assay: In vivo treatment, progression of zygotes into blastocysts in vitro; design: species or system mouse; conditions: 10 μg i.p. at 0, 4, 8 h after hCG; for decrease in number of cells in the blastocysts / suppression of development of zygotes into blastocyst stage embryos: fertilized oocytes cultured 5 days
Experimental: as §1

MII oocytes = assay: Glutathione content in oocytes; type: cell-based, mouse; conditions: COCs treated 16 h
Experimental: FIGS. 4A-E depict BDNF conditioning of oocytes for development into preimplantation embryos. FIG. 4A is a bar graph indicating the percentage of MII oocytes that developed to two-cell or blastocyst-stage embryos. Specifically, COCs obtained from preovulatory follicles were cultured without (control) or with BDNF (3 ng/ml) for 16 h. After progression to the MII stage, oocytes were inseminated and cultured for 5 days more without hormones. The percentage of MII oocytes that developed to two-cell or blastocyst-stage embryos were evaluated (n=5, 34-95 oocytes per experiment). FIG. 4B indicates the effects of BDNF treatment on glutathione (GSH) content in oocytes. After treatment of COCs for 16 h without (control, C) or with BDNF, glutathione levels in oocytes at MII oocytes were evaluated (mean±SEM, n=6). FIG. 4C depicts the effects of K252a treatment in vivo on the progression of zygotes into blastocysts in vitro. […] After initial injection, mice were allowed to mate with fertile males. Fertilized oocytes were cultured for 5 days, and the number of blastocyst embryos was evaluated. FIG. 4D depicts the effects of K252a treatment on the number of cells in the blastocysts. […]
Because the oocyte content of glutathione is important to sperm nuclear decondensation, the glutathione concentration in oocytes also was evaluated. […]

[4] = test system: oocytes of preovulatory follicles; assay: Preovulatory follicle culture, GVBD of oocytes; type: cell-based, mouse; conditions: cultured preovulatory follicles
Experimental: Follicle Cultures. Preovulatory follicles were excised from mouse ovaries 48 h after PMSG treatment and cultured to examine nuclear maturation of oocytes (Kawamura et al. (2004) Proc. Natl. Acad. Sci. USA 101, 7323-7328). […] The vials were flushed at the start of the culture with O2/N2 (at a 1:1 ratio), sealed, and cultured at 37° C. with gentle shaking for 6 h. After culture, cumulus oocyte complexes (COCs) were isolated, and, after cumulus cells were removed, oocytes were examined for the occurrence of GVBD.

[5] = test system: oocytes (cumulus oocyte complexes); assay: In vitro maturation, fertilization and early embryonic development; type: cell-based, mouse
Experimental: In Vitro Maturation, Fertilization, and Early Embryonic Development. We performed in vitro maturation of oocytes followed by in vitro fertilization as previously described, with slight modifications. COCs from PMSG-primed mice were obtained in the M2 medium supplemented with 5% FBS before culturing in minimum essential media-α (Invitrogen) supplemented with Earle's salts, 10 μg/ml streptomycin sulfate, 75 μg/ml penicillin G, and 5% FBS in the presence or absence of 3 ng/ml BDNF at 37° C. in 5% CO2/95% air. After 16 h of treatment, cumulus cells were removed and the oocytes were examined and classified according to their developmental stage (germinal vesicle, metaphase I, or MII). MII-stage oocytes were inseminated with sperm from B6D2F1 males and incubated for 4 h at 37° C. in 5% CO2/95% air. After in vitro fertilization, fertilized oocytes were recovered, washed three times, and cultured in human tubal fluid medium (Specialty Media). The following morning, two-cell stage embryos were collected and cultured in 2 ml of modified M16 medium for 5 days more up to the blastocyst stage at 37° C. in 5% CO2/95% air. Embryonic development was monitored daily by Hoffman modulation contrast microscopy, and the progression of fertilized eggs to preimplantation embryos was assessed.

[6] = pretreatment 3 ng/ml BDNF 16 h, then in vitro fertilization without BDNF

| Molecule | inhibition of first polar body extrusion by ovulated oocytes (Trk receptor [1]) | number of ovulated oocytes per animal (Trk receptor [1]) | effect on the stimulatory effect of BDNF on first polar body extrusion [2] | decrease in number of cells in the blastocysts (Trk receptor [3]) | suppression of development of zygotes into blastocyst stage embryos (Trk receptor [3]) | first polar body extrusion in cultured oocytes [2] | further results |
| --- | --- | --- | --- | --- | --- | --- | --- |
| CC12OC(CC1(O)C(=O)O)n1c3ccccc3c3c4c(c5c6ccccc6n2c5c31)C(=O)NC4 (stereo not shown) [K252b] | ineffective | 38.4±8.7 | not | not | ineffective |  |  |
| TrkB ectodomain: TrkB ectodomain (R & D Systems), antagonises BDNF stimulation |  |  | blocked |  |  | ineffective |  |
| COC(=O)[C@@]1(O)C[C@H]2O[C@]1(C)n1c3ccccc3c3c4c(c5c6ccccc6n2c5c31)C(=O)NC4 [K252a] | 30% | 37.8±5.3 | suppressed | 51% | 72% |  | number of fertilized oocytes vs control (Trk receptor [3]; oocytes collected 22 h after hCG): did not differ |
| BDNF: recombinant human BDNF (Pepro-Tech), neurotrophin, ligand of TrkB (protein, human, recombinant human BDNF (Pepro-Tech), neurotrophin, ligand of TrkB) MTILFLTMVISYFGCMKAAPMKEANIRGQGGLAYPGVRTHGTLESFTVNGPKAGSRGLTSLADTFEHVIEELLDEDQKVRPNEENNKDADLYTSRVMLSSQVPLEPFTPLLFLLEEYKNYLDAANMSMRVRRHSDPARRGELSVCDSISEWVTAADKKTAVDMSGGTFTVTVLEKVPVSKGQLKQYFYETKCNPMGYTKEGCRGIDKRHWNSQCRTTQSYVRALTMDSFTKKRIGWRFIRIDTSCVCTLTIKRGR |  |  |  |  |  | increased | glutathione content in MII oocytes (MII oocytes): increased; cumulus cell expansion [4]: did not induce; induction of GVBD in oocytes ([4]; 6 h, 5 μg/ml LH or BDNF): not and lack of effect; increase in proportion of oocytes showing first polar body extrusion (MII-stage oocytes) ([5]; COCs, 3 ng/ml BDNF, 16 h, 5% FBS): more than 2 fold; increase in proportion of MII oocytes that developed into blastocyst-stage embryos [5, 6]: 5 fold; increase in proportion of MII oocytes that developed into two-cell embryos [5, 6]: 2 fold |
| NGF: mouse nerve growth factor (R & D Systems) (protein, UniProt P01139 122-241, looked up) Beta-nerve growth factor: SSTHPVFHMGEFSVCDSVSVWVGDKTTATDIKGKEVTVLAEVNINNSVFRQYFFETKCRASNPVESGCRGIDSKHWNSYCTTTHTFVKALTTDEKQAAWRFIRIDTACVCVLSRKATRRG |  |  |  |  |  | not |  |
| NT-3: human neurotrophin-3 (R & D Systems) (protein, UniProt P20783 139-257, looked up) Neurotrophin-3: YAEHKSHRGEYSVCDSESLWVTDKSSAIDIRGHQVTVLGEIKTGNSPVKQYFYETRCKEARPVKNGCRGIDDKHWNSQCKTSQTYVRALTSENNKLVGWRWIRIDTSCVCALSRKIGRT |  |  |  |  |  | not |  |

Reference: patent publication US8445281B2, “In vitro exposure of immature oocytes to BDNF enhances generation of embryonic stem cells” (The Board of Trustees of the Leland Stanford Junior …, priority 2006, dated 2013)
